Calls of active or inactive are those of the source.
What was measured:
Daudi [1] = test: Effect on total AKT protein level in human Daudi cells at 0.75 to 3 uM incubated for 24 hrs by Western blot analysis; assay type: functional, cell-based; conditions: dose 0.75-3 µM
Raji [2] = test: Induction of apoptosis in human Raji cells assessed as downregulation of Mcl-1 expression at 1.25 to 5 uM incubated for 24 hrs by Western blot analysis; assay type: functional, cell-based; conditions: dose 1.25-5 µM
Raji [3] = test: Induction of apoptosis in human Raji cells assessed as upregulation of cleaved caspase-3 expression at 1.25 to 5 uM incubated for 24 hrs by Western blot analysis; assay type: functional, cell-based; conditions: dose 1.25-5 µM
Raji [4] = test: Induction of mitochondrial dysfunction in human Raji cells assessed as decrease in ATP-5J protein expression at 2.5 to 5 uM incubated for 48 hrs by Western blot analysis; assay type: functional, cell-based; conditions: dose 2.5-5 µM
Raji [5] = test: Induction of apoptosis in human Raji cells assessed as effect on caspase-8 protein expression at 1.25 to 5 uM incubated for 24 hrs by Western blot analysis; assay type: functional, cell-based; conditions: dose 1.25-5 µM
Daudi [6] = test: Induction of cell cycle arrest in human Daudi cells assessed as accumulation of cells at G0/G1 phase at 3 uM incubated for 24 hrs by PI staining based flow cytometry analysis (reference value: 24.28%); assay type: functional
Raji [7] = test: Induction of apoptosis in human Raji cells assessed as nuclear condensation incubated for 48 hrs by Hoechst 33258/PI staining based fluorescence microscopic analysis; assay type: functional, cell-based; conditions: dose 1.25-5 µM
[8] = Inhibition of PI3K/AKT/mTOR signalling pathway in human Daudi cells assessed as inhibition of PI3K phosphorylation incubated for 24 hrs by Western blot analysis; assay type: cell-based; conditions: dose 0.75-3 µM
Raji [9] = test: Induction of apoptosis in human Raji cells assessed as effect on Bax protein expression at 1.25 to 5 uM incubated for 24 hrs by Western blot analysis; assay type: functional, cell-based; conditions: dose 1.25-5 µM
Raji [10] = test: Effect on total PI3K protein level in human Raji cells at 1.25 to 5 uM incubated for 24 hrs by Western blot analysis; assay type: functional, cell-based; conditions: dose 1.25-5 µM
Daudi [11] = test: Induction of apoptosis in human Daudi cells assessed as effect on caspase-8 protein expression at 0.75 to 3 uM incubated for 24 hrs by Western blot analysis; assay type: functional, cell-based; conditions: dose 0.75-3 µM
Raji [12] = test: Effect on total mTOR protein level in human Raji cells at 1.25 to 5 uM incubated for 24 hrs by Western blot analysis; assay type: functional, cell-based; conditions: dose 1.25-5 µM
Daudi [13] = test: Induction of apoptosis in human Daudi cells assessed as early apoptotic cells at 3 uM incubated for 24 hrs by Annexin V-FITC/PI staining based flow cytometric analysis (reference value: 1.7%); assay type: functional
Daudi [14] = test: Induction of cell cycle arrest at G0/G1 phase in human Daudi cells assessed as downregulation of CDK4 protein expression at 0.75 to 3 uM incubated for 24 to 48 hrs by Western blot analysis; assay type: functional, cell-based; conditions: dose 0.75-3 µM, time 24-48 hrs
[15] = Inhibition of PI3K/AKT/mTOR signalling pathway in human Raji cells assessed as inhibition of AKT phosphorylation at […] residue incubated for 24 hrs by Western blot analysis; assay type: cell-based; conditions: dose 1.25-5 µM
Raji [16] = test: Induction of apoptosis in human Raji cells assessed as viable cells at 5 uM incubated for 24 hrs in the presence of YS49 by Annexin V-FITC/PI staining based flow cytometric analysis (reference value: 97.8%); assay type: functional; conditions: read-out: Activity
Raji [17] = test: Induction of mitochondrial oxidative damage in human Raji cells assessed as increase in intracellular mitochondrial superoxide generation at 5 uM incubated for 1 to 6 hrs by MitoSOX red dye based flow cytometric analysis; assay type: functional, cell-based; conditions: time 1-6 hrs
Raji [18] = test: Induction of apoptosis in human Raji cells assessed as total apoptotic cells at 5 uM incubated for 48 hrs by Annexin-V/PI staining based flow cytometric analysis relative to control; assay type: functional
Raji [19] = test: Induction of mitochondrial dysfunction in human Raji cells assessed as decrease in ATP-5H protein expression at 2.5 to 5 uM incubated for 48 hrs by Western blot analysis; assay type: functional, cell-based; conditions: dose 2.5-5 µM
Daudi [20] = test: Induction of cell cycle arrest in human Daudi cells assessed as S phase cells at 3 uM incubated for 24 hrs by PI staining based flow cytometry analysis (reference value: 49.79%); assay type: functional
Daudi [21] = test: Effect on total PI3K protein level in human Daudi cells at 0.75 to 3 uM incubated for 24 hrs by Western blot analysis; assay type: functional, cell-based; conditions: dose 0.75-3 µM
Daudi [22] = test: Induction of cell cycle arrest at G0/G1 phase in human Daudi cells assessed as downregulation of Cyclin E1 protein expression at 0.75 to 3 uM incubated for 24 to 48 hrs by Western blot analysis; assay type: functional, cell-based; conditions: dose 0.75-3 µM, time 24-48 hrs
[23] = Inhibition of PI3K/AKT/mTOR signalling pathway in human Raji cells assessed as inhibition of PI3K phosphorylation incubated for 24 hrs by Western blot analysis; assay type: cell-based; conditions: dose 1.25-5 µM
Raji [24] = test: Induction of apoptosis in human Raji cells assessed as necrotic cells at 5 uM incubated for 24 hrs by Annexin V-FITC/PI staining based flow cytometric analysis (reference value: 1.5%); assay type: functional
Raji [25] = test: Induction of apoptosis in human Raji cells assessed as late apoptotic cells at 5 uM incubated for 24 hrs by Annexin V-FITC/PI staining based flow cytometric analysis (reference value: 0.0%); assay type: functional
Daudi [26] = test: Downregulation of c-Myc expression level in human Daudi cells incubated for 24 hrs by Western blot analysis; assay type: functional, cell-based; conditions: dose 0.75-3 µM
[27] = Inhibition of PI3K/AKT/mTOR signalling pathway in human Daudi cells assessed as inhibition of AKT phosphorylation at […] residue incubated for 24 hrs by Western blot analysis; assay type: cell-based; conditions: dose 0.75-3 µM
Daudi [28] = test: Induction of apoptosis in human Daudi cells assessed as upregulation of cytochrome C expression at 0.75 to 3 uM incubated for 24 hrs by Western blot analysis; assay type: functional, cell-based; conditions: dose 0.75-3 µM
Daudi [29] = test: Induction of apoptosis in human Daudi cells assessed as nuclear fragmentation incubated for 24 hrs by Hoechst 33258/PI staining based fluorescence microscopic analysis; assay type: functional, cell-based; conditions: dose 0.75-3 µM
Daudi [30] = test: Induction of cell cycle arrest at G0/G1 phase in human Daudi cells assessed as upregulation of p21 protein expression at 0.75 to 3 uM incubated for 24 to 48 hrs by Western blot analysis; assay type: functional, cell-based; conditions: dose 0.75-3 µM, time 24-48 hrs
Daudi [31] = test: Induction of apoptosis in human Daudi cells assessed as viable cells at 3 uM incubated for 24 hrs in the presence of YS49 by Annexin V-FITC/PI staining based flow cytometric analysis (reference value: 97.2%); assay type: functional; conditions: read-out: Activity
[32] = Inhibition of PI3K/AKT/mTOR signalling pathway in human Raji cells assessed as increase in ratio of mTOR phosphorylation to total mTOR protein level at 5 uM incubated for 12 hrs in the presence of YS49 by Western blot analysis; assay type: cell-based
[33] = Inhibition of PI3K/AKT/mTOR signalling pathway in human Daudi cells assessed as increase in ratio of AKT phosphorylation at […] residue to total AKT protein level at 3 uM incubated for 12 hrs in the presence of YS49 by Western blot analysis; assay type: cell-based
[34] = Inhibition of PI3K/AKT/mTOR signalling pathway in human Daudi cells assessed as increase in ratio of mTOR phosphorylation to total mTOR protein level at 3 uM incubated for 12 hrs in the presence of YS49 by Western blot analysis; assay type: cell-based
Raji [35] = test: Induction of cell cycle arrest at G0/G1 phase in human Raji cells assessed as downregulation of CDK2 protein expression at 1.25 to 5 uM incubated for 24 to 48 hrs by Western blot analysis; assay type: functional, cell-based; conditions: dose 1.25-5 µM, time 24-48 hrs

COc1c(OC)c2c3c(nccc3c1-c1cc(C)cc(C)c1)C(c1cc(C)cc(C)c1)=CN2
30.03%: Activity (Daudi [20])
17%: Activity (Raji [24])
80.2%: viability at 3 µM (Daudi [31])
4.2%: Activity (Raji [25])
18.6%: Activity (Daudi [13])
inactive: Activity (Daudi [1]) | Activity (Raji [5]) | Activity (Raji [9]) | Activity (Raji [10]) | Activity (Daudi [11]) | Activity (Raji [12]) | Activity (Daudi [21]) | inhibition [32] | inhibition [33] | inhibition [34]
active: Activity (Raji [2]) | Activity (Raji [3]) | Activity (Raji [4]) | Activity (Raji [7]) Dose-Dependent Effect | inhibition [8] Dose-Dependent Effect | Activity (Daudi [14]) | inhibition [15] Dose-Dependent Effect | Activity (Raji [17]) | Activity (Raji [19]) | Activity (Daudi [22]) | inhibition [23] Dose-Dependent Effect | Activity (Daudi [26]) Dose-Dependent Effect | inhibition [27] Dose-Dependent Effect | Activity (Daudi [28]) | Activity (Daudi [29]) Dose-Dependent Effect | Activity (Daudi [30]) | Activity (Raji [35])
67%: viability at 5 µM (Raji [16])
49.7%: Activity (Daudi [6])
25.8%: Activity (Raji [18])
